Experimental data reported in patent US10052306B2 (LUC THERAPEUTICS, INC., priority 2013, dated 2018).

Columns and labels:
[1] = biological target: NR1/NR2B (Homo sapiens (Human), UniProt Q05586+Q13224); assay: Cell assay: FDSS Ca2+ influx inhibition in HEK293 cells expressing NR1/NR2B; conditions: Binned Activity, HEK293 cells expressing NR1/NR2B, Ca2+ influx; binned NR2B NAM IC50;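 further: Fluo-8 Ca2+ signal read on Hamamatsu FDSS 6000 after glutamate, glycine and Ca2+ challenge following 10 min compound preincubation, end/baseline fluorescence ratio compared with MK801 control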
[2] = biological target: NR1/NR2B (Homo sapiens (Human), UniProt Q13224); assay: as above; conditions: read-out: NR2B NAM IC50; HEK293 cells expressing NR1/NR2B, Ca2+ influx
Sequence of NR1/NR2B (Homo sapiens (Human), UniProt Q13224) (Q13224 27-1484, other chains not shown): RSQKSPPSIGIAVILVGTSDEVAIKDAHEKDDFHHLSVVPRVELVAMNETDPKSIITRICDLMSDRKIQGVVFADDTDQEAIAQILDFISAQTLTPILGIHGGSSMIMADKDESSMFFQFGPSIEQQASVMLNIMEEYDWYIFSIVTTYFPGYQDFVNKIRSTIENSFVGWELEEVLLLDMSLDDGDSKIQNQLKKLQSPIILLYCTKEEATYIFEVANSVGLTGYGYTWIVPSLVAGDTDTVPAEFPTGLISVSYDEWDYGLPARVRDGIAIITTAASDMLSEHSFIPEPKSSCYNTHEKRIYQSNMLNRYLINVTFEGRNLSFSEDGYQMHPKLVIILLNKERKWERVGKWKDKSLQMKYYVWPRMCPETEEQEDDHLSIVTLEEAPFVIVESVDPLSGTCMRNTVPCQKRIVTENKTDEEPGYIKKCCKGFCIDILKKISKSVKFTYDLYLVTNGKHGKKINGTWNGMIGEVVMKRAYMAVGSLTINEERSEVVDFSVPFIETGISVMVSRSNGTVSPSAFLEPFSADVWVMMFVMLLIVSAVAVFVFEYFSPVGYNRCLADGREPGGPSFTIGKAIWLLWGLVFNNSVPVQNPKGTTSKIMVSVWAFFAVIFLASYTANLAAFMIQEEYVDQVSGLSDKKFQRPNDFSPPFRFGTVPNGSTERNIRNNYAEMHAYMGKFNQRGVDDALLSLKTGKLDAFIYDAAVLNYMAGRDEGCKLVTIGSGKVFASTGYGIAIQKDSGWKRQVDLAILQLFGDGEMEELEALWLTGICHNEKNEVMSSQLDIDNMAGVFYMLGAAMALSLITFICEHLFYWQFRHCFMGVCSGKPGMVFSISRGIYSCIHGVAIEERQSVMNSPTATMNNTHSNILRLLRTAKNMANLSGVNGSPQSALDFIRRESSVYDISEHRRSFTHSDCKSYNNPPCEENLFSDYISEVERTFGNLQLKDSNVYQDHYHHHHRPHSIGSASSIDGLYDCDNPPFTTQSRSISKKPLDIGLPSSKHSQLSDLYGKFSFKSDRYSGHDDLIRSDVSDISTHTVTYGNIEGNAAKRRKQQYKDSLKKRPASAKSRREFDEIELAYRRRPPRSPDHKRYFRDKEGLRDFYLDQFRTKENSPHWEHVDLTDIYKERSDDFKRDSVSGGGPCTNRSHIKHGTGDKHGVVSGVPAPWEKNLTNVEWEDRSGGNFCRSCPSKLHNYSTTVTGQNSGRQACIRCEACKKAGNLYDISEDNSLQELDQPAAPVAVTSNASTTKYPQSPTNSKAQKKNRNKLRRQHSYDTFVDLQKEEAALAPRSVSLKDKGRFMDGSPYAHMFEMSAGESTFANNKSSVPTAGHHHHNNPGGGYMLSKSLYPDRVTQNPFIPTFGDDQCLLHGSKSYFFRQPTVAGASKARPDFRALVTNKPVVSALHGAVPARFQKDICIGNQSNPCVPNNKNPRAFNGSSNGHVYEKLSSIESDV

Sequence of NR1/NR2B (Homo sapiens (Human), UniProt Q05586+Q13224) (Q13224 27-1484, other chains not shown): as above

Compound	IC50 [1]	IC50 [2]
CC(C)(C)c1ccc([C@]2(O)C[C@H]3CN(c4ccccn4)C[C@H]3C2)cc1 [Example 88, 5-(4-tert-butylphenyl)-2-(pyridin-2-yl)-octahydrocyclopenta[c] pyrrol-5-ol]	> 10 µM	10 µM
Oc1ccc([C@H](O)CN2C[C@@H]3C[C@](O)(Cc4ccccc4)C[C@@H]3C2)cc1 [Example 292, (3aR,5S,6aS)-5-benzyl-2-((S)-2-hydroxy-2-(4-hydroxyphenyl)ethyl) octahydrocyclopenta [c]pyrrol-5-ol]	1 to 10 µM	4.71 µM
Oc1ccc([C@@H](O)CN2C[C@@H]3C[C@@](O)(Cc4ccccc4)C[C@@H]3C2)cc1 [Example 136, (3aR,5R,6aS)-5-benzyl-2-((R)-2-hydroxy-2-(4-hydroxyphenyl)ethyl)octa-hydrocyclopenta[c]pyrrol-5-ol]	< 0.1 µM	0.0237 µM
O=C(Nc1cccc(Cl)c1)N1C[C@@H]2C[C@@](O)(Cc3ccccc3)C[C@@H]2C1 [Example 118, (3aR,5r,6aS)-5-benzyl-N-(3-chlorophenyl)-5-hydroxyhexahydrocyclo-penta[c]pyrrole-2(1H)-carboxamide]	> 10 µM	10 µM
Oc1ccc([C@@H](O)CN2C[C@@H]3C[C@@](O)(Cc4ccccc4)C[C@@H]3C2)nc1 [Example 1646, (3aR,5S,6aS)-5-benzyl-2-((S)-2-hydroxy-2-(5-hydroxypyridin-2-yl)ethyl)octahydrocyclo-penta[c]pyrrol-5-ol]	< 0.1 µM	0.0381 µM
COc1ccc(C)cc1NC(=O)N1C[C@@H]2C[C@@](O)(Cc3ccccc3)C[C@@H]2C1 [Example 124, (3aR,5r,6aS)-5-benzyl-5-hydroxy-N-(2-methoxy-5-methylphenyl)hexahydro-cyclopenta[c]pyrrole-2(1H)-carboxamide]	> 10 µM	10 µM
O=C(CN1C[C@@H]2C[C@@](O)(c3ccccc3)C[C@@H]2C1)c1cccc(F)c1 [Example 61, 1-(3-fluorophenyl)-2-{5-hydroxy-5-phenyl-octahydrocyclopenta[c]pyrrol-2-yl}ethan-1-one]	> 10 µM	10 µM

Results, then the compound that gave them:

IC50 [1]	IC50 [2]	Compound
0.1 to 1 µM	0.118 µM	O=C(CN1C[C@@H]2C[C@@](O)(Cc3c(F)cccc3F)C[C@@H]2C1)c1ccc(O)cc1 [Example 241, 2-[(3aR,5R,6aS)-5-[(2,6-difluorophenyl)methyl]-5-hydroxy-octahydrocyclopenta[c]pyrrol-2-yl]-1-(4-hydroxyphenyl)ethan-1-one]
0.1 to 1 µM	0.132 µM	CO[C@@]1(Cc2ccccc2)C[C@H]2CN(CC(=O)c3ccc(O)c(F)c3)C[C@H]2C1 [Example 170, 2-((3aR,5r,6aS)-5-benzyl-5-methoxyhexahydrocyclo-penta[c]pyrrol-2(1H)-yl)-1-(3-fluoro-4-hydroxyphenyl)ethanone]
< 0.1 µM	0.0432 µM	O=C(CN1C[C@@H]2C[C@@](O)(Cc3ccc(F)cc3)C[C@@H]2C1)c1ccc(O)cc1 [Example 134, 2-((3aR,5r,6aS)-5-(4-fluorobenzyl)-5-hydroxyhexahydrocyclo-penta[c]pyrrol-2(1H)-yl)-1-(4-hydroxyphenyl)ethanone]
< 0.1 µM	0.093 µM	O=C(CN1C[C@@H]2C[C@@](F)(Cc3ccccc3)C[C@@H]2C1)c1ccc(O)cc1 [Example 312]
> 10 µM	10 µM	Cc1cccc(-c2ccc(C(=O)CN3C[C@@H]4C[C@@](O)(CCc5ccccc5)C[C@@H]4C3)cc2)c1 [Example 277]
< 0.1 µM	0.0433 µM	COc1ccc(C[C@]2(O)C[C@H]3CN(CC(=O)c4ccc(O)cc4)C[C@H]3C2)cc1 [Example 184, 2-[(3aR,5R,6aS)-5-hydroxy-5-[(4-methoxyphenyl)methyl]-octahydrocyclopenta[c]pyrrol-2-yl]-1-(4-hydroxyphenyl)ethan-1-one]
